Patent US8871760B2, “[1,2,4]triazolo[3,4-C][1,4]oxazines as P2X7 modulators” (Roche Palo Alto LLC, priority 2009, dated 2014)

Target: T1, human P2X7 (UniProt Q99572)
T1 sequence (Q99572 1-595): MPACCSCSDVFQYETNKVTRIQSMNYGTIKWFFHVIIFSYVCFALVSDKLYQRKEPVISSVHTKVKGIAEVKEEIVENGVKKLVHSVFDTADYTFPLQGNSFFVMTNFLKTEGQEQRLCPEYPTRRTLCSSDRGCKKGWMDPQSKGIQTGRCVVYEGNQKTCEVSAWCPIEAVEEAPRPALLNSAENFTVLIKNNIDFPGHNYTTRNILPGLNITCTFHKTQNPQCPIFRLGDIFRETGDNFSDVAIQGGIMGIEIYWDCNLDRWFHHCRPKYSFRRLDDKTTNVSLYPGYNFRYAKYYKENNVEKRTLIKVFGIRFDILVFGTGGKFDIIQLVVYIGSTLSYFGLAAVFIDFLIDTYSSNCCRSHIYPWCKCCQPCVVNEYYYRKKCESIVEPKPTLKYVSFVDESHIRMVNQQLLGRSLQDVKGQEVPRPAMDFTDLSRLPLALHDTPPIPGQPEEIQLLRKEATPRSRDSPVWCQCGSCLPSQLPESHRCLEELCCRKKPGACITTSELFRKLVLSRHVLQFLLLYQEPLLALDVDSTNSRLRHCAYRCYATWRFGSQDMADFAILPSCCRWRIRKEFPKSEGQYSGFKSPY
Assay: Intracellular Calcium Flux (FLIPR) Assay
Type: cell-based
Method: Intracellular Calcium Flux (FLIPR) Assay
Compound and Reagent Preparation
Stock solutions of compounds were prepared from powders as a 10 mM DMSO stock solution. These solutions were stored at RT during the two week period of these experiments to prevent freeze-thaw of the DMSO stocks. The DMSO stocks were added to the appropriate assay buffer at a concentration of 10 μM, and then diluted serially to the final concentrations that were tested. No observable precipitate was formed at any time during this process. The aqueous solutions of compounds as well as ATP (Sigma A7699) and BzATP (Sigma B6396) were prepared fresh for each day of experiment.
1321N1 cells stably expressing the full length human P2X7 gene (1321N1-hP2X7) and HEK293 cells stably expressing the full length rat P2X7 gene (HEK293-rP2X7) were obtained from the Roche Cell Culture Facility. 1321N1-hP2X7 cells were grown in Dulbecco's Modified Eagle's Medium (DMEM) high glucose supplemented with 10% FBS and […] G418. HEK293-rP2X7 cells were grown in DMEM/F-12 supplemented with 10% FBS, 1 mM CaCl2, 2 mM MgCl2, 2 mM L-Glutamine and […] G418. Cells were split such that they never became >70% confluent.
Intracellular Calcium Flux (FLIPR)
On the day prior to the experiment, 1321N1-hP2X7 or HEK293-rP2X7 cells were released into suspension with calcium-free PBS+Versene and washed by centrifugation with calcium-free PBS to remove the Versene. Cells were resuspended in growth medium at a density of 2.5×10^5 cells/mL and seeded into black walled, clear bottom 96 well plates (50,000 cells/well) approximately 18 hr prior to intracellular calcium flux experiments.
On the day of the experiment, plates were washed with FLIPR buffer (calcium- and magnesium-free Hank's Balanced Salt Solution (HBSS) supplemented with 10 mM Hepes, 2.5 mM probenecid and 2 mM calcium chloride) using a BIO-TEK 96 channel plate washer and incubated with […] fluo-3 dye at 37° C. for one hr. The dye was then removed by plate washing and the cells were allowed to equilibrate for 20 min at room temperature with antagonist or vehicle (FLIPR buffer). Agonist (100 μM BzATP final concentration for hP2X7; 5 μM BzATP final concentration or rP2X7) was added online with the FLIPR and fluorescence measurements made at 1 sec intervals for 60 sec followed by 3 sec intervals for a further 4 min (5 min total). A final addition of 5 μM ionomycin was made and the maximal BzATP-evoked fluorescence normalized to the maximal ionomycin-evoked fluorescence.

SMILES	pIC50
COc1cc(Br)c(Nc2nnc3n2[C@H](c2ccc(F)cc2)COC3)cc1OC [Compound 13, (2-Bromo-4,5-dimethoxy-phenyl)-[(R)-5-(4-fluoro-phenyl)-5,6-dihydro-8H-[1,2,4]triazolo[3,4-c][1,4]oxazin-3-yl]-amine]	7.75
CCc1c(Nc2nnc3n2[C@@H](c2ccc(F)cc2)CCC3)ccc2ncccc12 [Compound 9, (5-Ethyl-quinolin-6-yl)-[(R)-5-(4-fluoro-phenyl)-5,6,7,8-tetrahydro-[1,2,4]triazolo[4,3-a]pyridin-3-yl]-amine]	5.17
COc1cc(C)c(Nc2nnc3n2[C@H](c2ccc(F)cc2)CCC3)cc1OC [Compound 4, (4,5-Dimethoxy-2-methyl-phenyl)-[(S)-5-(4-fluoro-phenyl)-5,6,7,8-tetrahydro-[1,2,4]triazolo[4,3-a]pyridin-3-yl]-amine]	7.98
Cc1ccc2ncccc2c1Nc1nnc2n1C(c1cccc(F)c1)COC2 (stereo not drawn) [Compound 25, [5-(3-Fluoro-phenyl)-5,6-dihydro-8H-[1,2,4]triazolo[3,4-c][1,4]oxazin-3-yl]-(6-methyl-quinolin-5-yl)-amine]	7.735
COc1cc(C)c(Nc2nnc3n2C(C)(c2ccc(F)cc2)COC3)cc1OC (stereo not drawn) [Compound 23, (4,5-Dimethoxy-2-methyl-phenyl)-[5-(4-fluoro-phenyl)-5-methyl-5,6-dihydro-8H-[1,2,4]triazolo[3,4-c][1,4]oxazin-3-yl]-amine]	6.9
Cc1cc(Cl)c(OCCO)cc1Nc1nnc2n1[C@H](c1ccc(F)cc1)CCC2 [Compound 15, 2-{2-Chloro-5-[(S)-5-(4-fluoro-phenyl)-5,6,7,8-tetrahydro-[1,2,4]triazolo[4,3-a]pyridin-3-ylamino]-4-methyl-phenoxy}-ethanol]	7.133
COc1cc(Br)c(Nc2nnc3n2C(c2ccc(F)cc2)COC3)cc1OC (stereo not drawn) [Compound 5, (2-Bromo-4,5-dimethoxy-phenyl)-[5-(4-fluoro-phenyl)-5,6-dihydro-8H-[1,2,4]triazolo[3,4-c][1,4]oxazin-3-yl]-amine]	7.775
Cc1cc(Cl)c(OCCO)cc1Nc1nnc2n1[C@H](c1ccc(F)cc1)C[S@@+]([O-])C2 [Compound 47, 2-{2-Chloro-5-[(5R,7R)-5-(4-fluoro-phenyl)-7-oxo-5,6,7,8-tetrahydro-7lambda*4*- [1,2,4]triazolo[3,4-c][1,4]thiazin-3-ylamino]-4-methyl-phenoxy}-ethanol]	7.705
Cc1cnn(-c2ccc(C)c(Nc3nnc4n3[C@H](c3ccc(F)cc3)COC4)c2)c1 [Compound 22, [(R)-5-(4-Fluoro-phenyl)-5,6-dihydro-8H-[1,2,4]triazolo[3,4-c][1,4]oxazin-3-yl]-[2-methyl-5-(4-methyl-pyrazol-1-yl)-phenyl]-amine]	7.855
CCc1c(Nc2nnc3n2C(c2ccc(F)cc2)CCC3)ccc2ncccc12 (stereo not drawn) [Compound 2, (5-Ethyl-quinolin-6-yl)-[5-(4-fluoro-phenyl)-5,6,7,8-tetrahydro-[1,2,4]triazolo[4,3-a]pyridin-3-yl]-amine]	7.52
O=c1[nH]ncc2c(Nc3nnc4n3[C@H](c3ccc(F)cc3)COC4)cccc12 [Compound 42, 5-[(R)-5-(4-Fluoro-phenyl)-5,6-dihydro-8H-[1,2,4]triazolo[3,4-c][1,4]oxazin-3-ylamino]-2H-phthalazin-1-one]	6.135
Cc1ccc(-c2cc(C)n(C[C@@H](O)CO)n2)cc1Nc1nnc2n1[C@H](c1ccc(F)cc1)COC2 [Compound 32, (R)-3-(3-{3-[(R)-5-(4-Fluoro-phenyl)-5,6-dihydro-8H-[1,2,4]triazolo[3,4-c][1,4]oxazin-3-ylamino]-4-methyl-phenyl}-5-methyl-pyrazol-1-yl)-propane-1,2-diol]	7.5475
Cc1cc(Cl)c(OCCO)cc1Nc1nnc2n1[C@H](c1cccc(F)c1)COC2 [Compound 44, 2-{2-Chloro-5-[(R)-5-(3-fluoro-phenyl)-5,6-dihydro-8H-[1,2,4]triazolo[3,4-c][1,4]oxazin-3-ylamino]-4-methyl-phenoxy}-ethanol]	7.6
Cc1cc(Cl)c(-n2ncccc2=O)cc1Nc1nnc2n1[C@H](c1ccc(F)cc1)COC2 [Compound 50, 2-{2-Chloro-5-[(R)-5-(4-fluoro-phenyl)-5,6-dihydro-8H-[1,2,4]triazolo[3,4-c][1,4]oxazin-3-ylamino]-4-methyl-phenyl}-2H-pyridazin-3-one]	7.17
Cc1ccc(-c2cc(C)n(CCO)n2)cc1Nc1nnc2n1[C@H](c1ccc(F)cc1)COC2 [Compound 30, 2-(3-{3-[(R)-5-(4-Fluoro-phenyl)-5,6-dihydro-8H-[1,2,4]triazolo[3,4-c][1,4]oxazin-3-ylamino]-4-methyl-phenyl}-5-methyl-pyrazol-1-yl)-ethanol]	7.735
COC[C@H](O)Cn1nc(-c2ccc(C)c(Nc3nnc4n3[C@H](c3ccc(F)cc3)COC4)c2)cc1C [Compound 33, (R)-1-(3-{3-[(R)-5-(4-Fluoro-phenyl)-5,6-dihydro-8H-[1,2,4]triazolo[3,4-c][1,4]oxazin-3-ylamino]-4-methyl-phenyl}-5-methyl-pyrazol-1-yl)-3-methoxy-propan-2-ol]	7.56
CCc1c(Nc2nnc3n2[C@H](c2ccc(F)cc2)CCC3)ccc2ncccc12 [Compound 8, (5-Ethyl-quinolin-6-yl)-[(S)-5-(4-fluoro-phenyl)-5,6,7,8-tetrahydro-[1,2,4]triazolo[4,3-a]pyridin-3-yl]-amine]	7.693
O=c1[nH]nccc1-c1ccc(Br)c(Nc2nnc3n2[C@H](c2ccc(F)cc2)COC3)c1 [Compound 49, 4-{4-Bromo-3-[(R)-5-(4-fluoro-phenyl)-5,6-dihydro-8H-[1,2,4]triazolo[3,4-c][1,4]oxazin-3-ylamino]-phenyl}-2H-pyridazin-3-one]	8.2
O=c1[nH]ncc2c(Nc3nnc4n3[C@H](c3ccc(F)cc3)COC4)c(Br)ccc12 [Compound 48, 6-Bromo-5-[(R)-5-(4-fluoro-phenyl)-5,6-dihydro-8H-[1,2,4]triazolo[3,4-c][1,4]oxazin-3-ylamino]-2H-phthalazin-1-one]	7.57
Cc1ccc(-c2cc(C)n(C[C@@H](C)O)n2)cc1Nc1nnc2n1[C@H](c1ccc(F)cc1)COC2 [Compound 31, (R)-1-(3-{3-[(R)-5-(4-Fluoro-phenyl)-5,6-dihydro-8H-[1,2,4]triazolo[3,4-c][1,4]oxazin-3-ylamino]-4-methyl-phenyl}-5-methyl-pyrazol-1-yl)-propan-2-ol]	7.45
Cc1ccc(-c2cc(C)n(C[C@H](O)CO)n2)cc1Nc1nnc2n1[C@H](c1ccc(F)cc1)COC2 [Compound 35, (S)-3-(3-{3-[(R)-5-(4-Fluoro-phenyl)-5,6-dihydro-8H-[1,2,4]triazolo[3,4-c][1,4]oxazin-3-ylamino]-4-methyl-phenyl}-5-methyl-pyrazol-1-yl)-propane-1,2-diol]	7.755
Cc1ccc(-c2ccn[nH]c2=O)cc1Nc1nnc2n1[C@H](c1ccc(F)cc1)COC2 [Compound 43, 4-{3-[(R)-5-(4-Fluoro-phenyl)-5,6-dihydro-8H-[1,2,4]triazolo[3,4-c][1,4]oxazin-3-ylamino]-4-methyl-phenyl}-2H-pyridazin-3-one]	8.28
Fc1cccc(C2COCc3nnc(Nc4cccc5ncccc45)n32)c1 (stereo not drawn) [Compound 20, [5-(3-Fluoro-phenyl)-5,6-dihydro-8H-[1,2,4]triazolo[3,4-c][1,4]oxazin-3-yl]-quinolin-5-yl-amine]	6.987
Cc1cc(Cl)c(OCCO)cc1Nc1nnc2n1C(c1ccc(F)cc1)CCC2 (stereo not drawn) [Compound 6, 2-{2-Chloro-5-[5-(4-fluoro-phenyl)-5,6,7,8-tetrahydro-[1,2,4]triazolo[4,3-a]pyridin-3-ylamino]-4-methyl-phenoxy}-ethanol]	6.99
